Assay results taken from patent US11351151B2, “Compound having anticancer activity and preparation method and application” (3D Medicines (Beijing) Co., Ltd., priority 2016, dated 2022).
Values joined by “and” are separate entries in the source; they are usually repeats but may differ in a detail not shown here. Identical values can stand only once.

Tests used:
[1] = system: 26 liver cancer cell lines; assay: Cell proliferation assay (Alamar Blue), summary over liver cancer lines; assay type: cell-based
Protocol: 1. Instruments and Materials • Thermo 311 CO2 incubator; Haier biosafety cabinet; Molecular Devices microplate reader; Xiangyi brand L530 desktop low speed centrifuge; Olympus IX51 inverted fluorescence microscope, DMEM, RPMI 1640, MEM, DMEM/F12 1:1 medium, Fetal bovine serum, 0.25% trypsin solution, phosphate buffer (Thermo Fisher Shanghai Co., Ltd.); sigma dimethyl sulfoxide (DMSO), resazurin; 54 commercial tumor cell lines (including 26 liver cancer cell lines). Experimental drugs: compounds 1-12 and active drug Linifanib; chemotherapeutic drug Doxorubicin (HY-15142; Shanghai Qianyuan Biomedical Technology Co., Ltd.).
2. […] The proportion and quantity of passage were determined by experimental needs. The ratio of subculture of this cell line was generally 1:2^˜1:3. • 2.2 inhibition effect on the proliferation of different tumor cell lines • Cell test: 54 cell lines in logarithmic growth phase were inoculated in 96-well culture plates at 500^˜1×10^4/well (the optimal seeding density of each cell line was determined in pre-experiment), After incubating at 37° C. for 4 h in a 5% CO2 humidification incubator, added 10 μL of compounds 1-12 or Linifanib to each well, and tested 9 drug concentration gradients for each compound (diluted from the highest concentration of the test by 3.16 times). […]

[2] = Liver homogenate incubation stability study; assay type: in vitro ADME, SD rat; conditions: for Residual intermediate: listed as intermediate
Protocol: (§1) The purpose of this example was to investigate the stability of the precursor Linifanib-C12-AA5 (compound 8) and the intermediate Linifanib-C12-Asp (compound 12) in plasma, liver homogenate and spleen homogenate (precursor Linifanib-C12-AA5 metabolizes into the intermediates Linifanib-C12-Asp and Linifanib; the intermediate Linifanib-C12-Asp is further metabolized to form Linifanib), and the metabolites were analyzed quantitatively, and the stability of the incubation system was verified with positive drugs, providing references for compound drug evaluation.
(§2) Experimental Procedure • 1. Animal blood was collected, blood samples were placed in EDTA anticoagulation tubes, centrifuged at 3000 g for 15 min at 4° C., plasma was separated, and 2 blood samples were mixed in equal volumes; • 2. Weighed and dissolved a certain amount of Linifanib-C12-AA5/Linifanib-C12-Asp in DMSO:MeOH (2:8), prepared 200 μM mother liquor by purity, and added the compound to the plasma to a final concentration of 2 μg/mL. The organic ratio in the system was not more than 0.5%. • 3. Incubated in a 37° C. water bath and set the sampling points to 0, 0.5, 1, 2, 4, 6, and 8 h. At each sampling point, 100 μL of each sample was added to 300 μL of acetonitrile (with internal standard) for precipitation, centrifuged at 12,000 rpm for 5 min, and 200 μL of supernatant was taken for analysis by LC-MS/MS. • 4. Configured the standard curve to quantify Linifanib, Linifanib-C12-Asp and residual Linifanib-C12-AA5. • 2.2 Linifanib-C12-AA5 and Linifanib-C12-Asp liver/spleen homogenate incubation stability study protocol Test animal • Type: SD rat; Quantity: 2 • Sex: Male; Weight: 200-250 g
(§3) Experimental Procedure • 1. Biological analysis method: established the biological analysis method of the compound Linifanib-C12-Asp and Linifanib; • 2. Rat liver/spleen was taken on the day of the experiment, two pieces were cut and mixed, and homogenized with 4 volumes (1 g: 4 mL) phosphate buffer (pH 7.4), and the temperature was controlled to not exceed 10° C. in the homogenization process; quantitative detection of protein, and controlled liver and spleen protein concentration. • 3. Added the drug Linifanib-C12-AA5, Linifanib-C12-Asp to the liver/spleen homogenate to a concentration of 1000 ng/mL, the incubation volume was 1 mL, and controlled the concentration of the organic solvent in the incubation system to not exceed 0.5%. • 4. Incubated in a 37° C. water bath and took 100 μL of samples at 0, 0.5, 1, 2, 4, 6, and 8 h, respectively. After pre-processing the samples with a definite method, the LC-MS/MS analysis was carried out. • 5. Prepared a standard curve with blank liver/spleen homogenate to quantify Linifanib-C12-Asp and Linifanib. 3. Stability Study Results

[3] = Spleen homogenate incubation stability study; assay type: in vitro ADME, SD rat
Protocol: as §1, §2, §3

[4] = liver cancer patients, phase III; cited from earlier work

In the case of `Cc1ccc(F)c(NC(=O)Nc2ccc(-c3cccc4c3c(N)nn4C(=O)CCCCCCCCCCCNC(=O)C[C@H](N)C(=O)N[C@@H](CCC(=O)N[C@@H](CCC(=O)N[C@@H](CCC(=O)N[C@@H](CCC(=O)O)C(=O)O)C(=O)O)C(=O)O)C(=O)O)cc2)c1` [Compound 8], the “difference of IC50 values versus Linifanib” value ([1]; most of the liver cancer cell lines (15/26, 58%)) is reported as “more than 8 times” and the “conversion of prodrug into active drug, liver versus spleen homogenate” value ([2]; FIG. 5, comparison of liver and spleen homogenate) is reported as “more specifically converted into an active drug in the liver”.
In the case of `Cc1ccc(F)c(NC(=O)Nc2ccc(-c3cccc4c3c(N)nn4C(=O)CCCCCCCCCCCNC(=O)C[C@H](N)C(=O)O)cc2)c1` [Compound 12], the Residual intermediate ([3]; first experiment, 1000 ng/mL added, 0 h, listed as intermediate) is reported as 900 ng/mL and 1020 ng/mL, the Residual intermediate ([3]; first experiment, 1000 ng/mL added, 0.5 h) is reported as 959 ng/mL and the Residual intermediate ([3]; first experiment, 1000 ng/mL added, 2 h, listed as intermediate) is reported as 755 ng/mL and 681 ng/mL. The Residual intermediate ([3]; first experiment, 1000 ng/mL added, 4 h, listed as intermediate) was 610 ng/mL and 589 ng/mL, the Residual intermediate ([3]; first experiment, 1000 ng/mL added, 6 h, listed as intermediate) was 470 ng/mL and 467 ng/mL and the Residual intermediate ([3]; first experiment, 1000 ng/mL added, 8 h, listed as intermediate) was 499 ng/mL and 506 ng/mL. For the same molecule, the Residual intermediate ([3]; second experiment, 0 h, listed as intermediate) was 812 ng/mL and 844 ng/mL, the Residual intermediate ([3]; second experiment, 0.5 h, listed as intermediate) was 770 ng/mL and 744 ng/mL and the Residual intermediate ([3]; second experiment, 6 h, listed as intermediate) was 496 ng/mL and 483 ng/mL. For the same molecule, the “conversion into Linifanib in liver homogenate” value ([2]; liver homogenate) was “can be rapidly converted into Linifanib”, the Residual intermediate ([2]; liver homogenate, first experiment, 1000 ng/mL added, 0 h) was 1130 ng/mL and 1260 ng/mL and the Residual intermediate ([2]; liver homogenate, first experiment, 1000 ng/mL added, 0.5 h) was 1000 ng/mL and 970 ng/mL. The Residual intermediate ([2]; liver homogenate, first experiment, 1000 ng/mL added, 1 h) was 1130 ng/mL and 946 ng/mL, the Residual intermediate ([2]; liver homogenate, first experiment, 1000 ng/mL added, 2 h) was 1000 ng/mL and 602 ng/mL and the Residual intermediate ([2]; liver homogenate, first experiment, 1000 ng/mL added, 4 h) was 294 ng/mL and 456 ng/mL. For the same molecule, the Residual intermediate ([2]; liver homogenate, first experiment, 1000 ng/mL added, 6 h) was 452 ng/mL and 226 ng/mL, the Residual intermediate ([2]; liver homogenate, second experiment, 0 h) was 649 ng/mL and 634 ng/mL and the Residual intermediate ([2]; liver homogenate, second experiment, 0.5 h) was 452 ng/mL and 469 ng/mL. For the same molecule, the Residual intermediate ([2]; liver homogenate, second experiment, 6 h) was 309 ng/mL and 340 ng/mL.
For `Cc1ccc(F)c(NC(=O)Nc2ccc(-c3cccc4[nH]nc(N)c34)cc2)c1` [Linifanib, reference compound], the IC50 ([1]; nearly half of the liver cancer cell lines (12/26, 46%), moderately sensitive) is listed as < 5 µM and the “toxicity and side effects” value [4] is listed as “greater than Sorafenib”.
